Columns and labels:
Format in all cases: cell-based
Settings in all cases: inoculum about 10^4 CFU/ml, 18-24 h at 37° C.
Staph. aureus Tour L 165 = test: MIC, standard dilution test, Staph. aureus Tour L 165
Experimental: (§1) ISOSENSITEST broth (Oxoid) and TOLLD-HEWITT broth (Difco) are used for growing staphylococci and streptococci, respectively. Broth cultures are diluted so that the final inoculum is about 10^4 colony forming units/ml (CFU/ml).

[1] = system: Staph. haemolyticus L 602; test: MIC, standard dilution test, Staph. haemolyticus L 602
Experimental: as §1

[2] = system: Staph. epidermidis ATCC 12228; test: MIC, standard dilution test, Staph. epidermidis ATCC 12228
Experimental: as §1

Strep. pyogenes C 203 = test: MIC, standard dilution test, Strep. pyogenes C 203
Experimental: as §1

Strep. pneumoniae UC41 = test: MIC, standard dilution test, Strep. pneumoniae UC41
Experimental: as §1

[3] = system: Strep. faecalis ATCC 7080; test: MIC, standard dilution test, Strep. faecalis ATCC 7080
Experimental: as §1

Strep. mitis L 796 = test: MIC, standard dilution test, Strep. mitis L 796
Experimental: as §1

[4] = system: Neisseria gonorrhoeae ISM68/126; test: MIC, standard dilution test, Neisseria gonorrhoeae ISM68/126
Experimental: as §1

[5] = system: Haemophilus influenzae ATCC 19418; test: MIC, standard dilution test, Haemophilus influenzae ATCC 19418
Experimental: as §1

[6] = system: Escherichia coli SKF 12140; test: MIC, standard dilution test, Escherichia coli SKF 12140
Experimental: as §1

[7] = system: Proteus vulgaris ATCC 881; test: MIC, standard dilution test, Proteus vulgaris ATCC 881
Experimental: as §1

[8] = system: Pseudomonas aeruginosa ATCC 10145; test: MIC, standard dilution test, Pseudomonas aeruginosa ATCC 10145
Experimental: as §1

Structure (SMILES) | Minimal inhibitory concentration (MIC) (Staph. aureus Tour L 165) | Minimal inhibitory concentration (MIC) [1] | Minimal inhibitory concentration (MIC) [2] | Minimal inhibitory concentration (MIC) (Strep. pyogenes C 203) | Minimal inhibitory concentration (MIC) (Strep. pneumoniae UC41) | Minimal inhibitory concentration (MIC) [3] | Minimal inhibitory concentration (MIC) (Strep. mitis L 796) | Minimal inhibitory concentration (MIC) [4] | Minimal inhibitory concentration (MIC) [5] | Minimal inhibitory concentration (MIC) [6] | Minimal inhibitory concentration (MIC) [7] | Minimal inhibitory concentration (MIC) [8]
COC(=O)C1NC(=O)C2NC(=O)C(NC(=O)C3NC(=O)C4NC(=O)C(Cc5ccc(c(Cl)c5)Oc5cc3cc(c5OCC3CO3)Oc3ccc(cc3Cl)C2O)NC(=O)C(N)c2ccc(O)c(c2)Oc2cc(O)cc4c2)c2ccc(O)c(c2)-c2c(O)cc(O)cc21.Cl (stereo not shown) [Compound 1, O^56-(2,3-epoxypropyl)deglucoteicoplanin methyl ester] | 0.125 | 1 | 0.063 | 0.063 | 0.125 | 0.5 | 0.25 | 64 | 64 | 32 | 64 | > 128
COC(=O)C1NC(=O)C2NC(=O)C(NC(=O)C3NC(=O)C4NC(=O)C(Cc5ccc(c(Cl)c5)Oc5cc3cc(c5OCCCCN3C(=O)c5ccccc5C3=O)Oc3ccc(cc3Cl)C2O)NC(=O)C(N)c2ccc(O)c(c2)Oc2cc(O)cc4c2)c2ccc(O)c(c2)-c2c(O)cc(O)cc21.Cl (stereo not shown) [Compound 2, O^56-[4(N-phthalimido)butyl]deglucoteicoplanin methyl ester] | 2 | 4 | 2 | 0.125 | 0.125 | 4 | 0.125 | > 128 | > 128 | > 128 | > 128 | > 128
COC(=O)C1NC(=O)C2NC(=O)C(NC(=O)C3NC(=O)C4NC(=O)C(Cc5ccc(c(Cl)c5)Oc5cc3cc(c5OC(CCO)C(=O)O)Oc3ccc(cc3Cl)C2O)NC(=O)C(N)c2ccc(O)c(c2)Oc2cc(O)cc4c2)c2ccc(O)c(c2)-c2c(O)cc(O)cc21.Cl (stereo not shown) [Compound 3, O^56-(1-carboxy-3-hydroxypropyl)deglucoteicoplanin methyl ester hydrochloride] | 0.5 | 2 | 0.25 | 0.125 | 0.125 | 0.125 | 0.25 | 64 | > 128 | > 128 | > 128 | > 128
COC(=O)C1NC(=O)C2NC(=O)C(NC(=O)C3NC(=O)C4NC(=O)C(Cc5ccc(c(Cl)c5)Oc5cc3cc(c5OC(CCO)C(=O)NCCN)Oc3ccc(cc3Cl)C2O)NC(=O)C(N)c2ccc(O)c(c2)Oc2cc(O)cc4c2)c2ccc(O)c(c2)-c2c(O)cc(O)cc21.Cl (stereo not shown) [Compound 4, O^56-[1-[[2-aminoethylamino]carbonyl]3-hydroxypropyl]deglucoteicoplanin methyl ester hydrochloride] | 0.125 | 0.5 | 0.125 | 0.063 | 0.25 | 0.25 | 0.125 | 64 | 128 | 16 | 128 | 64
COC(=O)C1NC(=O)C2NC(=O)C(NC(=O)C3NC(=O)C4NC(=O)C(Cc5ccc(c(Cl)c5)Oc5cc3cc(c5OCCCCN)Oc3ccc(cc3Cl)C2O)NC(=O)C(N)c2ccc(O)c(c2)Oc2cc(O)cc4c2)c2ccc(O)c(c2)-c2c(O)cc(O)cc21 (stereo not shown) [Compound 5, O^56-(4-aminobutyl)deglucoteicoplanin methyl ester] | 0.125 | 0.5 | 0.125 | 0.063 | 0.125 | 0.125 | 0.125 | – | – | 8 | 32 | 32
COC(=O)C1NC(=O)C2NC(=O)C(NC(=O)C3NC(=O)C4NC(=O)C(Cc5ccc(c(Cl)c5)Oc5cc3cc(c5OCCCCN(CCN(C)C)CCN(C)C)Oc3ccc(cc3Cl)C2O)NC(=O)C(N)c2ccc(O)c(c2)Oc2cc(O)cc4c2)c2ccc(O)c(c2)-c2c(O)cc(O)cc21 (stereo not shown) [Compound 6, O^56-[4-[bis[2-(dimethylamino)ethyl]amino]butyl]deglucoteicoplanin methyl ester] | 0.25 | 0.5 | 0.25 | 0.032 | 0.25 | 0.5 | 0.125 | 128 | – | 16 | > 128 | > 128
COC(=O)C1NC(=O)C2NC(=O)C(NC(=O)C3NC(=O)C4NC(=O)C(Cc5ccc(c(Cl)c5)Oc5cc3cc(c5OCCCl)Oc3ccc(cc3Cl)C2O)NC(=O)C(N)c2ccc(O)c(c2)Oc2cc(O)cc4c2)c2ccc(O)c(c2)-c2c(O)cc(O)cc21 (stereo not shown) [Compound 7, O^56-(2-chloroethyl) deglucoteicoplanin methyl ester] | 0.125 | 1 | 0.5 | 0.125 | 0.125 | 2 | 0.25 | > 128 | 64 | > 128 | > 128 | > 128
COC(=O)CNC(=O)CNCCOc1c2cc3cc1Oc1ccc(cc1Cl)C(O)C1NC(=O)C(NC(=O)C3NC(=O)C3NC(=O)C(Cc4ccc(c(Cl)c4)O2)NC(=O)C(N)c2ccc(O)c(c2)Oc2cc(O)cc3c2)c2ccc(O)c(c2)-c2c(O)cc(O)cc2C(C(=O)OCCBr)NC1=O (stereo not shown) [Compound 18, O^56-[2-[2-[(2-methoxy-2-oxoethyl)amino]-2-oxoethylamino]ethyl]deglucoteicoplanin 2-bromoethyl ester] | 0.13 | 2 | – | 0.125 | – | – | – | – | – | > 128 | > 128 | > 128
NC1C(=O)NC2Cc3ccc(c(Cl)c3)Oc3cc4cc(c3OCCO)Oc3ccc(cc3Cl)C(O)C3NC(=O)C(NC(=O)C4NC(=O)C(NC2=O)c2cc(O)cc(c2)Oc2cc1ccc2O)c1ccc(O)c(c1)-c1c(O)cc(O)cc1C(C(=O)OCCO)NC3=O (stereo not shown) [Compound 22, O^56-(2-hydroxyethyl)deglucoteicoplanin 2-hydroxyethyl ester] | 0.06 | 0.5 | – | 0.125 | – | – | – | – | – | 32 | – | –

From patent US5185320A, “O^56 -alkyl derivatives of aglycone and pseudo aglycones of teicoplanin” (Gruppo Lepetit S.p.A., priority 1989, dated 1993)
